Test results: patent US20160040215A1, “Methods for Pathogen Detection and Enrichment from Materials and Compositions” (priority 2013, published 2016)
Converted amounts (≈) assume the structure as drawn. Where two headings read alike, the source gives them in different places.

Columns and labels:
[1] = system: viable cells of fecal suspension
[2] = system: M. morganii and P. pennerii isolates; assay: microbe, parasite or virus in culture; type: cell-based
[3] = system: ethanol treated spores; assay: Germination of ethanol treated spores with germinants, CFU on plate media; details: 2 ug/ml; plated on Sweet B or M2GSC media, single donor, FIG. 9

## CCO [Ethanol, ethanol]
[1]
  reduction of the number of viable cells: approximately 4 logs

## C[C@@H](O)[C@H]1C(=O)N2C(C(=O)O)=C(SCCN=CN)C[C@H]12 [imipenem]
[2]
  MIC: 4 to 8 µg/mL
[2]; Morganella morganii
  MIC: 2 to 4 µg/mL (≈ 6.68 to 13.4 µM)

## lysozyme
[3]
  effect of addition to the plates on CFU, in words: small effect
